The values below are quoted from earlier work in the CATMoS acute toxicity set (Mansouri et al. 2021).

The data set can be described thus: rat acute oral toxicity. Conditions: in vivo.
In general, LD50 refers to the dose at which mortality reaches 50%. In the case of `CC(CN1CCN(CCOCCO)CC1)CN1c2ccccc2Sc2ccccc21` (stereo unspecified), the LD50 is 400 mg/kg. As for `CCOP(=S)(OCC)SCn1nnc2ccccc2c1=O`, the LD50 was 7 mg/kg.

Consider `NC(=O)OCCCc1ccccc1`, for which the 50% lethal dose (LD50) was 1110 mg/kg. For `CCCCn1c(=O)n(CCC)c(=O)c2c(NC)n(C(=O)OC)nc21`, the LD50 is 2380 mg/kg. With `CCCCOCCCOC(=O)CCOc1cc(Cl)c(Cl)cc1Cl`, the LD50 was 500 mg/kg. Consider `NC(=O)OCC(O)COc1ccc(Cl)cc1` (stereo unspecified), for which the LD50 was 744 mg/kg. For `O=C(O)CCC1(CCC(=O)O)c2ccccc2-c2ccccc21`, the LD50 is 2140 mg/kg. As to `CN=C(O)O/N=C(/C)C(C)(C)[N+](=O)[O-]`, the LD50 is 13 mg/kg. Consider `S=C1SSC2=NCCN12`, for which the median lethal dose (LD50) was 380 mg/kg. Consider `COc1ccc2nc3c(c(N)c2c1)CCCC3`, for which the median lethal dose (LD50) is 753 mg/kg. In the case of `O=C(CCC1CCN(Cc2ccccc2)CC1)c1ccc2c(c1)NCCCC2`, the median lethal dose (LD50) is 334 mg/kg.

`NS(=O)(=O)CCNC(=O)N(CCCl)N=O`: the 50% lethal dose (LD50) is 40 mg/kg. Consider `O=C1C(CCC2CC2)C(=O)N(c2ccccc2)N1c1ccccc1`, for which the median lethal dose (LD50) was 400 mg/kg. For the compound `NCCc1ccc(O)c(O)c1`, the 50% lethal dose (LD50) was 2860 mg/kg. Turning to `CC(=O)ON(C(=O)OC(C)C)c1ccccc1`, the LD50 is 3400 mg/kg.

`C/C(=C/CC[C@@]1(C)C2C[C@@H]3[C@H](C2)C31C)CO`: the LD50 was 3800 mg/kg. As to `CCc1c2c(nc3ccc(OC(=O)N4CCC(N5CCCCC5)CC4)cc13)-c1cc3c(c(=O)n1C2)COC(=O)[C@]3(O)CC`, the LD50 is 867 mg/kg.

With `O=C(OCC(Cl)(Cl)Cl)c1ccco1`, the LD50 was 600 mg/kg. For `[2H]C([2H])([2H])N(COC(C)=O)N=O`, the median lethal dose (LD50) is 120 mg/kg.

Consider `CC(C)(C)CC(C)(C)S`, for which the LD50 was 52 mg/kg. In the case of `CC(C)NCC(O)c1cc(O)cc(O)c1` (stereo unspecified), the 50% lethal dose (LD50) was 3370 mg/kg. Turning to `O=C1CC2(CCCC2)CC(=O)N1CCCCN1CCN(c2ncccn2)CC1`, the LD50 is 196 mg/kg. `CCCC(C)(COC(N)=O)COC(=O)NC(C)C` (stereo unspecified): the LD50 is 1320 mg/kg.

For `CC(C)[N+](C)(CCC(C(N)=O)(c1ccccc1)c1ccccc1)C(C)C`, the 50% lethal dose (LD50) is 1030 mg/kg.

In the case of `Nc1cc(Cl)c(N)c(Cl)c1`, the LD50 is 700 mg/kg. As to `O=[N+]([O-])c1cc(C(F)(F)F)ccc1Cl`, the LD50 was 1080 mg/kg. For `O=[N+]([O-])c1ccc(O/N=C/c2cc(Br)c(O)c(Br)c2)c([N+](=O)[O-])c1`, the LD50 was 1100 mg/kg.

`Cc1c(C)c2c(c(C)c1O)CCC(C)(C(=O)O)O2` (stereo unspecified): the LD50 was 4300 mg/kg. In the case of `CCCCCCCCc1ccc(-c2ccc(C#N)cc2)cc1`, the 50% lethal dose (LD50) was 2200 mg/kg. With `COC(=O)/C=C(\C)OP(=O)(OC)OC`, the LD50 is 3 mg/kg. In the case of `CCCCCCCCCCCC[N+](C)(C)CC(O)CCl` (stereo unspecified), the LD50 was 1070 mg/kg. For `O=C(OC1CC2NC(C1)C1OC21)C(CO)c1ccccc1` (stereo unspecified), the median lethal dose (LD50) was 3020 mg/kg.

Take `ClCCC[Si](Cl)(Cl)Cl`: the LD50 is 200 mg/kg. As to `CCN(CC)CCOCc1cc(Br)cc(Br)c1OC`, the LD50 was 500 mg/kg. Take `C=CC(=O)NCNC(=O)C=C`: the 50% lethal dose (LD50) was 390 mg/kg. For `CCCOC(=O)OOC(=O)OCCC`, the 50% lethal dose (LD50) is 3400 mg/kg.

Take `O=C(O)CNCC(=O)O`: the median lethal dose (LD50) was 8070 mg/kg.

On to `Cc1cccc(N2CCN(CC=Cc3ccc4c(c3)CCC(=O)N4)CC2)c1`, for which the LD50 was 500 mg/kg.

Take `NC(=O)NC(=O)Cc1ccccc1`: the LD50 was 1600 mg/kg.

Turning to `O=NN1CCNCC1`, the LD50 is 2260 mg/kg. As to `CCCCCCCCOC(C[n+]1ccccc1)c1ccc(C(C)(C)C)cc1` (stereo unspecified), the LD50 was 250 mg/kg. Consider `CN(C)c1ccccc1CS(=O)c1nc2ccccc2[nH]1` (stereo unspecified), for which the LD50 is 1300 mg/kg. For the compound `Cc1ccccc1-n1c(CF)nc2ccc(N)cc2c1=O`, the LD50 is 249 mg/kg. In the case of `N#CCCCCCN`, the LD50 is 820 mg/kg. Take `CC(C)c1ccc(CO)cc1`: the LD50 was 1020 mg/kg.

For `CNC(=O)Oc1cc(C)c(SC)c(C)c1`, the LD50 was 20 mg/kg. On to `CCCCCCCCCCCCOC(=O)CS(=O)(=O)O`, for which the median lethal dose (LD50) is 700 mg/kg. In the case of `COc1ccc(CCC2=NCCc3cc(OC)c(OC)cc32)cc1OC`, the LD50 was 900 mg/kg. As for `c1cc2c(cc1CCC(CCc1ccc3c(c1)OCO3)N1CCCC1)OCO2`, the LD50 was 565 mg/kg.

On to `CCc1cccc(CC)c1N(CNC(C)=O)C(=O)CCl`, for which the median lethal dose (LD50) is 3100 mg/kg.

For `O=[N+]([O-])c1cc2[nH]c(C(F)(F)F)nc2c(Cl)c1Cl`, the median lethal dose (LD50) is 55 mg/kg. On to `CCN1CCNCC1`, for which the LD50 was 2160 mg/kg. As for `O=c1oc2cc(O)ccc2s1`, the LD50 was 633 mg/kg. As to `C=COCCSCCCC`, the LD50 was 2830 mg/kg.

In the case of `O=C1OC(OC(=O)c2cccnc2Nc2cccc(C(F)(F)F)c2)c2ccccc21` (stereo unspecified), the 50% lethal dose (LD50) was 12000 mg/kg. As to `CCC(COCC1CO1)(COCC1CO1)COCC1CO1` (stereo unspecified), the LD50 was 3400 mg/kg. For `CN1CCN(CCCN2c3ccccc3Sc3ccc(C(F)(F)F)cc32)CC1`, the LD50 is 543 mg/kg. As for `CC=Cc1ccccc1`, the LD50 is 3600 mg/kg. For the compound `CC(CCc1ccc(O)cc1)NCCc1ccc(O)c(O)c1` (stereo unspecified), the 50% lethal dose (LD50) was 2300 mg/kg. Turning to `C[Se]C`, the LD50 is 2100 mg/kg.

`CC(CN(C)C)CN1c2ccccc2OCOc2ccc(Cl)cc21` (stereo unspecified): the 50% lethal dose (LD50) was 600 mg/kg.
